Data on 11 compounds can be found in ChEMBL document CHEMBL1201862, “PubChem BioAssay data set” (2004).

SMILES strings stand for the structures.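 In this assay, cells in 96-well plates receive the compound at five concentrations for 48 hours. Endpoints are linearly interpolated between the surrounding concentrations. GI50 = concentration required for 50% inhibition of growth.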 Active and inactive are the calls of the source. No stated cut-off is given here; in the data, active = GI50 up to about 1.1 µM and inactive = higher.

Holding throughout (assay): NCI-60 cell line screen, 48 h
In test [1] the test system is SF-295.
The subject of test [2] is HCT-15.
Test [3] deals with NCI-H460.
The subject of test [4] is SF-539.
The subject of test [5] is HOP-92.
The subject of test [6] is SN12C.
In test [7] the test system is A549.
For test [8], the system named is UACC-257.
For test [9], the system named is SNB-19.
The subject of test [10] is MOLT-4.
Test [11] concerns SNB-75.
Test [12] relates to OVCAR-3.
For test [13], the system named is HT-29.
Test [14] has as its system OVCAR-4.
Test [15] concerns RXF 393.
Test [16] deals with SF-268.
Test [17] deals with KM12.
Test [18] deals with NCI-H23.
The subject of test [19] is SK-MEL-2.
For test [20], the system named is K562.

In the case of `Cc1cnc(Cl)nc1C(C#N)c1nc2ccccc2s1` (configuration not stated), the GI50 in test [1] was 19.8 µM (inactive); in test [2] it was 16.6 µM; in [3] it was 30.7 µM (inactive); in test [4] it was 25.8 µM (inactive); in test [5], 7.33 µM (inactive); in test [6], 14.1 µM (inactive). The GI50 in test [7] is 29 µM (inactive); in [8], 31.7 µM (inactive); in test [9], 34.2 µM (inactive); in test [10], 63.5 µM (inactive); in test [11] it was 18.8 µM (inactive); in test [12], 25.5 µM (inactive). In addition, the GI50 was 29.6 µM (inactive) in test [13]; 22.8 µM (inactive) in test [14]; 17.2 µM (inactive) in [15]; 15.7 µM (inactive) in test [16]; 33.8 µM (inactive) in test [17]; 7 µM (inactive) in test [18].

In the case of `COc1cccc2c(Nc3ccc(S(=O)(=O)Nc4ncccn4)cc3)c3ccc([N+](=O)[O-])cc3nc12`, the GI50 was > 100 µM (inactive) in [1]; 24.7 µM in test [2]; 89.9 µM (inactive) in test [19]; 27.7 µM (inactive) in test [3]; 37.8 µM (inactive) in test [4]; 12.4 µM (inactive) in test [5]. Besides, the GI50 in [6] is 92.7 µM (inactive); in test [7], > 100 µM (inactive); in test [8], > 100 µM (inactive); in [9] it was > 100 µM (inactive); in test [10] it was 14.3 µM (inactive); in test [12], > 100 µM (inactive). Further, the GI50 in [13] was 57.4 µM (inactive); in test [14] it was > 100 µM (inactive); in test [15] it was 60.8 µM (inactive); in [16], > 100 µM (inactive); in [17], 12.5 µM (inactive); in test [20] it was 23 µM (inactive). The GI50 in test [18] was 72.1 µM (inactive).

As for `COc1cccc(NC(=O)CSc2nnc(-c3ccc(NC(C)=O)cc3)o2)c1`, the GI50 was > 100 µM (inactive) in test [1]; above 100 µM in test [2]; > 100 µM (inactive) in test [19]; > 100 µM (inactive) in test [3]; > 100 µM (inactive) in test [5]; > 100 µM (inactive) in test [6]. In addition, the GI50 in test [7] was > 100 µM (inactive); in [8] it was > 100 µM (inactive); in test [10], > 100 µM (inactive); in test [11] it was 30.5 µM (inactive); in test [12] it was > 100 µM (inactive); in test [13] it was 39.6 µM (inactive). Further, the GI50 in test [14] is > 100 µM (inactive); in [15] it was > 100 µM (inactive); in [16] it was > 100 µM (inactive); in test [17] it was 49.4 µM (inactive); in test [20] it was > 100 µM (inactive); in test [18], > 100 µM (inactive).

For `CC(Cc1ccccc1)Nc1ncnc2c1ncn2C1OC(CO)CC1O` (configuration not stated), the GI50 in test [1] is 1.93 µM (inactive); in test [2] it was above 100 µM; in [19] it was > 100 µM (inactive); in [3] it was > 100 µM (inactive); in [5], > 100 µM (inactive); in test [6], > 100 µM (inactive). Also, the GI50 in [7], in [8], in test [9], in [10], in test [11] and in [12] was > 100 µM (inactive) each time. Besides, the GI50 in test [13], in [14], in [15], in test [16], in test [17] and in [20] was > 100 µM (inactive) each time. Moreover, the GI50 in test [18] was > 100 µM (inactive).

For the compound `CCCN(CCC)c1cc2c(cc1F)c(=O)c(C(=O)O)cn2-c1ccc(N2CCN(C)CC2)cn1`, the GI50 in test [1] is 17.8 µM (inactive); in test [2], 22.9 µM; in [3] it was 17.5 µM (inactive); in test [4], 17.1 µM (inactive); in test [5], 13 µM (inactive); in test [6] it was 22.5 µM (inactive). The GI50 in test [7] is 16.1 µM (inactive); in test [8] it was 20.2 µM (inactive); in test [9] it was 15.3 µM (inactive); in test [10], 16.2 µM (inactive); in test [11], 14.7 µM (inactive); in test [12] it was 15.7 µM (inactive). In addition, the GI50 in [13] is 14.7 µM (inactive); in [14], 19.2 µM (inactive); in test [15] it was 18.7 µM (inactive); in test [16], 15.6 µM (inactive); in test [17], 15.1 µM (inactive); in [20] it was 17.8 µM (inactive). Moreover, the GI50 in test [18] is 16.7 µM (inactive).

As for `CN1NC(c2ccc(Cl)cc2)=C(C#N)C(=O)CC1c1ccccc1` (configuration not stated), the GI50 is > 100 µM (inactive) in test [1]; above 100 µM in test [2]; > 100 µM (inactive) in [19]; > 100 µM (inactive) in test [3]; > 100 µM (inactive) in test [5]; > 100 µM (inactive) in test [7]. For the same compound, the GI50 in test [8], in test [9], in [11], in test [13], in test [14] and in test [15] was > 100 µM (inactive) each time. The GI50 in [16], in test [17] and in test [18] was > 100 µM (inactive) throughout.

`O=C(Cc1nc2ccc(C(=O)c3ccccc3)cc2nc1O)C(=O)Nc1nc2ccccc2[nH]1`: the GI50 in test [1] is 28.4 µM (inactive); in [2] it was 75 µM; in [3], 46.5 µM (inactive); in test [4], 71 µM (inactive); in test [5], 23 µM (inactive); in test [6] it was > 100 µM (inactive). Also, the GI50 is 50.9 µM (inactive) in [7]; 84.5 µM (inactive) in [8]; > 100 µM (inactive) in [9]; 42.8 µM (inactive) in [10]; 31.7 µM (inactive) in test [11]; 62.5 µM (inactive) in test [12]. Further, the GI50 was 52.7 µM (inactive) in test [13]; 61.7 µM (inactive) in test [14]; 67 µM (inactive) in test [16]; 24.6 µM (inactive) in test [17]; 44.6 µM (inactive) in test [18].

For the compound `COc1cc(O)c2c(=O)cc(C3(O)C=CC(=O)C=C3)oc2c1`, the GI50 is 0.631 µM (active) in test [1]; 0.0435 µM in [2]; 0.619 µM (active) in [19]; 0.675 µM (active) in test [3]; < 0.01 µM (active) in test [4]; 0.135 µM (active) in test [6]. Besides, the GI50 is 0.489 µM (active) in test [8]; 6.93 µM (inactive) in test [9]; 0.0815 µM (active) in test [10]; 1.22 µM (inactive) in test [11]; < 0.01 µM (active) in test [13]; 0.393 µM (active) in [14]. For the same compound, the GI50 in test [15] is 3.44 µM (inactive); in test [16] it was 0.428 µM (active); in test [17], 0.083 µM (active); in test [20], < 0.01 µM (active); in test [18], 0.664 µM (active).

Take `c1ccc(-c2nnc(-c3nsc4ccccc34)o2)cc1`: the GI50 in test [2] was above 100 µM; in [19], > 100 µM (inactive); in test [4], > 100 µM (inactive); in [5] it was 18.4 µM (inactive); in test [6], > 100 µM (inactive); in test [7], > 100 µM (inactive). Further, the GI50 in test [8] was > 100 µM (inactive); in [9] it was > 100 µM (inactive); in [10], > 100 µM (inactive); in test [11], 2.56 µM (inactive); in test [12], > 100 µM (inactive); in test [13], > 100 µM (inactive). Further, the GI50 in [14], in [15], in test [16], in test [17], in test [20] and in test [18] was > 100 µM (inactive) throughout.

As for `COc1ccc(-c2cc(O)c3ccc(C)nc3n2)cc1`, the GI50 in test [2] was above 100 µM; in test [19], > 100 µM (inactive); in [4], > 100 µM (inactive); in test [5], 97.7 µM (inactive); in test [6], > 100 µM (inactive); in test [7], > 100 µM (inactive). The GI50 is > 100 µM (inactive) in [8]; > 100 µM (inactive) in test [9]; 49.4 µM (inactive) in test [10]; 81.5 µM (inactive) in test [13]; > 100 µM (inactive) in test [14]; > 100 µM (inactive) in test [15]. In addition, the GI50 in [16], in test [17], in test [20] and in test [18] was > 100 µM (inactive) in each case.

Consider `Nc1nc(O)c2ncn(C3C=CC(CO)O3)c2n1` (configuration not stated), for which the GI50 in [1] is > 100 µM (inactive); in test [2], above 100 µM; in test [19] it was > 100 µM (inactive); in test [3] it was > 100 µM (inactive); in test [5], > 100 µM (inactive); in test [6], > 100 µM (inactive). Also, the GI50 in test [8], in [9], in [10], in test [11], in [12] and in test [13] was > 100 µM (inactive) each time. The GI50 in test [14], in test [15], in [17] and in test [18] was > 100 µM (inactive) each time.
